Laboratory results: the supplement of paper PMC10307832

How the values were obtained:
Experiment in all cases: relative viability (nuclei count vs DMSO), 5 days (fraction); higher = more cells survive
Shikonin + Pemetrexed = compound: CC(C)=CC[C@@H](O)C1=CC(=O)c2c(O)ccc(O)c2C1=O [Shikonin] + Nc1nc2[nH]cc(CCc3ccc(C(=O)N[C@@H](CCC(=O)O)C(=O)O)cc3)c2c(=O)[nH]1 [Pemetrexed] (partner 0.2 µM)
Method in brief: (§1)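 Lung cancer cell lines in 1536-well plates got either a single drug or a fixed anchor-drug dose together with five library-drug doses (not always all listed) in √10 steps, by pin tool, on the day after seeding. Nuclei were counted after 5 days, and relative viability is the treated-to-vehicle ratio of nuclei counts. Values are medians of duplicate plates.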

[1] = compound: CC(C)N(CCCNC(=O)Nc1ccc(C(C)(C)C)cc1)C[C@H]1O[C@@H](n2ccc3c(N)ncnc32)[C@H](O)[C@@H]1O + COc1cc2c(Oc3ccc(NC(=O)C4(C(=O)Nc5ccc(F)cc5)CC4)cc3F)ccnc2cc1OCCCN1CCOCC1 [Foretinib] (partner 0.25 µM)
Method in brief: as §1

[2] = compound: CC(C)N(CCCNC(=O)Nc1ccc(C(C)(C)C)cc1)C[C@H]1O[C@@H](n2ccc3c(N)ncnc32)[C@H](O)[C@@H]1O + Cc1cc(Nc2cc(N3CCN(C)CC3)nc(Sc3ccc(NC(=O)C4CC4)cc3)n2)n[nH]1 [Tozasertib] (partner 0.1 µM)
Method in brief: as §1

[3] = compound: CC(C)N(CCCNC(=O)Nc1ccc(C(C)(C)C)cc1)C[C@H]1O[C@@H](n2ccc3c(N)ncnc32)[C@H](O)[C@@H]1O + Nc1nc2[nH]cc(CCc3ccc(C(=O)N[C@@H](CCC(=O)O)C(=O)O)cc3)c2c(=O)[nH]1 [Pemetrexed] (partner 0.2 µM)
Method in brief: as §1

Cell Line	relative viability (Shikonin + Pemetrexed; first compound 0.01 µM)	relative viability (Shikonin + Pemetrexed; first compound 0.1 µM)	relative viability (Shikonin + Pemetrexed; first compound 0.3162 µM)	relative viability (Shikonin + Pemetrexed; first compound 1 µM)	relative viability ([1]; first compound 0.08 µM)	relative viability ([1]; first compound 0.253 µM)	relative viability ([1]; first compound 0.8 µM)	relative viability ([1]; first compound 2.53 µM)	relative viability ([1]; first compound 8 µM)	relative viability ([2]; first compound 0.08 µM)	relative viability ([2]; first compound 0.253 µM)	relative viability ([2]; first compound 0.8 µM)	relative viability ([2]; first compound 2.53 µM)	relative viability ([2]; first compound 8 µM)	relative viability ([3]; first compound 0.08 µM)	relative viability ([3]; first compound 0.253 µM)	relative viability ([3]; first compound 0.8 µM)	relative viability ([3]; first compound 2.53 µM)	relative viability ([3]; first compound 8 µM)
NCI-H2342	0.808	0.852	0.809	0.804	0.931	0.9	0.9	1.21	1	0.57	0.559	0.415	0.472	0.56	0.807	0.722	0.729	0.718	0.801
HCC-15	0.228	0.225	0.233	0.213	0.948	1.04	1.11	0.998	0.981	0.354	0.542	0.369	0.401	0.337	0.221	0.225	0.229	0.213	0.219
A-427	1.02	1.04	1.01	1.24	1.08	1.04	1.1	1.1	0.966	0.2	0.208	0.193	0.204	0.206	1.05	0.998	0.937	0.929	0.99
NCI-H23	0.662	0.832	0.704	0.766	0.891	0.964	1.02	0.937	0.945	0.41	0.378	0.281	0.355	0.546	0.732	–	0.693	0.709	0.627
NCI-H1734	0.413	0.479	0.434	0.382	0.825	1.01	0.918	0.796	0.804	0.265	0.249	0.277	0.246	0.258	0.397	0.417	0.431	0.417	0.412
NCI-H520	0.801	0.784	0.689	0.604	0.685	0.878	0.644	0.817	0.704	0.453	0.512	–	0.416	0.437	0.614	0.743	0.663	0.787	0.7
RERF-LC-KJ	0.47	0.512	0.465	0.549	0.906	0.814	0.888	0.794	0.79	0.505	0.495	0.546	0.509	0.474	0.502	0.478	0.517	0.48	0.466
